We go through one substance from patent US5814470A, “Melittin-related polypeptides, mixture sets and libraries thereof” (priority 1997, dated 1998).

Data set [1] can be described thus: Polypeptide conformation by CD spectroscopy (α-helix content). Type of data set: physicochemical. As to conditions: in the presence of 100 mM NaCl, 25° C. On the procedure:
The library of sets of Example 1 was examined for the ability of each set to adopt an α-helical conformation. […] In the presence of 100 mM NaCl, the percent of α-helices varied from 20 to 40 percent.
All measurements were carried out on a Jasco J-720 circular dichroism spectropolarimeter (CD-Eaton, Md.), in conjunction with a Neslab RTE 110 waterbath and temperature controller at 25° C. (Dublin, Calif.). CD spectra were the average of a series of three to seven scans made at 0.2 nm intervals. Ellipticity was determined as means residue ellipticity, θ; the limits of error of measurements at 222 nm were ±500 (deg cm2 dmol^-1). For salt induced aggregation, stock solutions were separately prepared with 150 μM polypeptide sets in buffer (5 mM MOPS-NaOH, 100 mM NaCl).

In data set [2] the test system is human red blood cells (RBCs). The data set is described as follows: Hemolytic activity (HD50). Format: cell-based. The settings on record: one hour at 37° C., OD 414 nm. The method, then: The hemolytic activities of the polypeptide mixture sets were determined by using human red blood cells (RBCs). The cells were washed three times with phosphate-buffered saline (PBS/35 mM phosphate buffer--0.15M NaCl, pH 7.0) and resuspended in PBS. The hemolytic activity of the polypeptide sets were determined as described in Blondelle et al., Biochem. Biophys. Acta, 1202:331-336 (1993) using 96 well tissue culture plates. In brief, 100 μl of 0.5 percent RBC solution were added to an equal volume of peptides in PBS. The plates were incubated for one hour at 37° C. and the optical density (OD) of the supernatant was measured at 414 nm. The concentration in peptide necessary to lyse 50 percent RBCs (HD50) was then determined for each peptide using a sigmoidal curve fitting method (Graphpad).

The next data set concerns Staphylococcus aureus. As to conditions: no change in optical density over 18 hours; slightly different conditions; cited from earlier work.

For the substance Melittin, the “percent of α-helices (helicity)” value in data set [1] is “about 20%”. For the same substance, the “HD50 (concentration necessary to lyse 50 percent RBCs)” value in data set [2] amounted to 6 µg/mL. The “minimum inhibitory concentration (MIC)” value with Staphylococcus aureus is 25 µg/mL.
